# Measurements from patent US20070196514A1, “Prostate cancer treatment with glycogen synthase kinase-3beta inhibitors” (priority 2006, published 2007).
# Columns and labels:
# LNCaP cells [1] = assay: MTT cell growth assay; type: cell-based, human; conditions: three days; for cell growth inhibition (MTT): equimolecular concentrations of LiCl, NaCl, KCl; for cell growth (MTT): increasing doses in full culture medium, dose-responsive
# Experimental: (§1) For MTT-based cell growth assays, cells seeded in 96-well plates were serum-starved for 48 hours, and were then treated with vehicle or different reagents for different time periods as indicated in the figures. MTT assay were carried out using a pre-assembled kit (Sigma) according to the manufacturer's manual.
# (§2) To rule out the eventual intervention of the chloride anion and the osmotic disturbance, the effect of LiCl was compared with sodium chloride (“NaCl”) and potassium chloride (“KCl”) at equimolecular concentrations in both LNCaP and PC-3 cell lines. In addition, the androgen-insensitive C4-2 cell line was included. To easily handle the experiments while multiple comparisons were taken in place, a MTT assay was used to assess cell growth.
# Lastly, two GSK-3β-specific small chemical inhibitors, SB216763 and BIO, were used to verify that LiCl-induced suppression of cell growth is due to GSK-3β inhibition. LNCaP cells were seeded as above and then treated with increasing doses of the inhibitors in a full culture medium. Cell growth was assessed three days later by MTT assay.
# C4-2 cells [2] = assay: MTT cell growth assay; type: cell-based, human; conditions: equimolecular concentrations of LiCl, NaCl, KCl, three days
# Experimental: as §1, §2
# PC-3 cells [3] = assay: MTT cell growth assay; type: cell-based, human; conditions: equimolecular concentrations of LiCl, NaCl, KCl, three days
# Experimental: as §1, §2
# LNCaP cells [4] = assay: Western blot of cell cycle-related proteins; type: cell-based, human; conditions: BIO at different doses for 24 hours
# Experimental: Western blot was carried out as described previously (Liao 2004, Liao 2003, and Liao 2005). Briefly, cells were pellets and lysed in radio-immunoprecipitation assay (“RIPA”) buffer containing protease inhibitors (Half™ Protease Inhibitor Cocktail Kit, PIERCE, Rockford, Ill.). Proteins were separated on SDS-PAGE gels and transferred to Immuno-Blot™ PVDF membrane (BIO-RAD, Hercules, Calif.). Membranes were blocked in a tris-buffered solution plus Tween 20 (“TBST”) solution with 5% nonfat dry milk and incubated with primary antibodies overnight at 4° C. Immunoreactive signals were detected by horseradish peroxidase-conjugated secondary antibodies (Santa Cruz Biotech., Santa Cruz, Calif.) followed by SuperSingnal® WestFeml® Maximum Sensitivity Substrate (PIERCE).
# To verify those alterations at a protein level, two series experiments were conducted using Western blot technique. The first involved a time-course experiment. After serum starvation, LNCaP cells were left untreated or treated as before with LiCl for up to 24 hours. Cells were harvested at 18-24 hours.
# Next, a dose-response experiment was performed. Following serum starvation for 24 hours, LNCaP cells were treated with BIO at different doses for another 24 hours. Control cells received the vehicle as treatment.
# C4-2 cells [5] = assay: cell cycle analysis by flow cytometry (PI); type: cell-based, human; conditions: 12 hours treatment
# Experimental: (§3) For cell cycle analysis, serum-starved cells were left untreated or treated with different inhibitors for various time periods as indicated in the figures. After trypsinization, the cells were fixed and stained with propidium iodide (“PI”). Cell cycle distribution of PI-labeled cells was analyzed on a fluorescence activated cell sorter (Model EPICS XL-MCL, Beckman-Coulter Co., Fullerton, Calif.) as described previously (Miyake 2001).
# (§4) The effect of GSK-3β SB216763 on cell cycle distribution in AR-null PC-3 and androgen-insensitive C4-2 cell lines were also examined.
# PC-3 cells [6] = assay: cell cycle analysis by flow cytometry (PI); type: cell-based, human; conditions: 12 hours treatment
# Experimental: as §3, §4
# LNCaP-BclxL xenografts = assay: LNCaP-BclxL xenograft model; type: in vivo, castrated nude mice
# Experimental: All animal studies were conducted under an approved Institutional Animal Care and Use Committee protocol. Single cell suspensions (2×10^6 cells in 0.1 ml of RPMI1640 medium plus 10% FBS) were inoculated subcutaneously (s.c.) into the rear flanks (two sites/mouse) of 6 to 7 weeks old male nude mice (Charles River, Wilmington, Mass.). For protocol A, mice were randomly divided into two groups (5 animals each). On next day after inoculation, one group of animals received i.p. injection of LiCl at a daily dose of 2 mg/kg body weight. LiCl was dissolved in PBS. The control groups of animals received PBS alone in the same volume. Xenograft development and growth were monitored for 8 weeks. The tumor dimensions were measured twice a week. The tumor volume was calculated by the formula of L×W×H×0.5236 (Miyake 2001). At the end of treatment, xenograft tumors were extirpated, and the final tumor size and weight, as well as animal weight were measured. For protocol B, treatment began until tumor became palpable or 50 mm^3 in size, and LiCl or PBS was injected (5 animals each group) as above for a two-week course. Tumor size and weight were measured at the end of treatment. For BrdU in vivo labeling, the animals were injected i.p. with 0.5 ml of a 10-mM BrdU solution (Invitrogen) 2 hours before sacrifice. For experiments involving LNCaP-BclxL SB216763 subline cells (Liao 2005) were inoculated as above, and SB216763 treatment was started two weeks later when palpable xenografts were established. The SB216763 for animal use was purchased from Biomol (Plymouth Meeting, Pa.) and dissolved in a formula containing 50% N,N-dimethylacetamide (“DMA”), 45% polyethylene glycol 400 (“PEG-400”) and 5% Tween-80. SB216763 (2 mg/kilogram/bodyweight) or the solvent in 20 μl volume was injected i.p. three times a week. Tumor growth was monitored as discussed herein. […]
# AR-null PC-3 cells = conditions: Mazor 2004; cited from earlier work
# [7] = estimated serum lithium level in mice; type: in vivo; conditions: about 2 mg/kg of body weight, estimated (Moore 2002)
# Source text: Based on these preliminary results, therapeutically effective dosage levels include those substantially below those used for treatment of bipolar disorders with lithium in humans, which are reported to result in a serum level between about 0.2 and 1.5 mEq/L (Noble 2005), and is usually over 0.8 mEq/L.
# [8] = humans; cited from earlier work
smiles,measurement,setting,value
"[Cl-].[K+] [KCl, potassium chloride]",cell growth inhibition (MTT),LNCaP cells [1],did not cause any significant inhibition
same,cell growth inhibition (MTT),C4-2 cells [2],did not cause any significant inhibition
same,cell growth inhibition (MTT),PC-3 cells [3],did not cause any significant inhibition
"O=C1Nc2cc(Br)ccc2/C1=C1/Nc2ccccc2/C1=N\O [BIO, 6-bromoindirubin-3′-oxime]",cell growth (MTT),LNCaP cells [1],significantly suppressed
same,p21CIP1 protein expression (Western blot),LNCaP cells [4],increased dramatically
same,"protein levels of cyclins A and E, cdc6 and cdc25C (Western blot)",LNCaP cells [4]; dose-dependent,significantly reduced
"[Cl-].[Na+] [NaCl, sodium chloride]",cell growth inhibition (MTT),LNCaP cells [1],did not cause any significant inhibition
same,cell growth inhibition (MTT),C4-2 cells [2],did not cause any significant inhibition
same,cell growth inhibition (MTT),PC-3 cells [3],did not cause any significant inhibition
"Cn1cc(C2=C(c3ccc(Cl)cc3Cl)C(=O)NC2=O)c2ccccc21 [SB216763, 3-(2,4-Dichlorophenyl)-4-(1-methyl-1H-indol-3yl)-1H-pyrrole-2,5-dione]",cell growth (MTT),LNCaP cells [1],significantly suppressed
same,cell cycle distribution (S-phase arrest),C4-2 cells [5],arrested these cells in S-phase
same,cell cycle distribution (S-phase arrest),PC-3 cells [6],arrested these cells in S-phase
same,side effects,LNCaP-BclxL xenografts; SB216763 2 mg/kg i.p.,No side effects
same,tumor growth vs control animals,"LNCaP-BclxL xenografts; SB216763 2 mg/kg i.p. every two days, palpable tumors",largely suppressed
same,treatment duration after which difference in tumor volume became significant,LNCaP-BclxL xenografts; SB216763 2 mg/kg i.p. vs vehicle,5 week
same,growth of AR-null PC-3 cells,AR-null PC-3 cells,did not affect growth
[Li] [lithium],serum level,[7],about 0.02 mEq/L
same,usual serum level at dosages used for treatment of bipolar disorders,[8],over 0.8 mEq/L
